Numbered stars: 1 amine (or outer) side, 2 acyl side, 3 side chain; on linkers, the order of the positions; unused ones are H or OH. Bridge positions count the residues as written; N and C are the ends. Square brackets hold non-standard residues; d marks the D form. Peptide text beside a SMILES is read from it. I, II: the chains in the order shown. Actinocin(9to1) = Cc1c2oc3c(C)ccc(C(=O)[*:1])c3nc-2c(C(=O)[*:2])c(N)c1=O; NMeV = CN[C@H](C(=O)O)C(C)C; Sar = CNCC(=O)O
Legend:
[1] = system: Human colonic cancer cells HCT 116; assay: Viable count (Trypan Blue) and morphology of HCT 116 cells; format: cell-based; conditions: Example 28; for cell morphology (characteristics of apoptosis) / change in cell count / viable count versus incubation time curve (FIG. 29): 0.5 mg/ml, autoclaved; for change in cell count / viable count versus incubation time curve (FIG. 29): 1 to 4 days; for effects of inducing apoptosis, filter-treated samples: 5 mg/ml solutions in PBS treated with a filter
Protocol: Then the suspension was pipetted into a 24-well plate (mfd. by FALCON) at a ratio of 1.8 ml/well. […] As a control, PBS alone was added in the same amount and incubation was effected in the same manner. 1, 2, 3 and 4 days after the initiation of the incubation, the viable cells were counted in accordance with the method described in “Soshiki Baiyo no Gijutsu” (second ed.), Asakura Shuppan, ed. by Nippon Soshiki Baiyo Gakkai, 26-28 (1990), namely, by the Trypan Blue staining method on a counting chamber.
In this figure, the abscissa refers to the incubation time (day) while the ordinate refers to the viable count (×10^4 cells /2 ml) in the culture medium. In FIG. 29, the open circle stands for the control (no addition), the solid circle stands for the sulfated-fucose-containing polysaccharide preparation obtained in Example 1 and the solid square stands for the sulfated-fucose-containing polysaccharide mixture obtained in Example 1.
Then the suspension was pipetted into a 24-well plate (mfd. by FALCON) at a ratio of 1.8 ml/well. […] As a control, PBS alone was added in the same amount and incubation was effected in the same manner. After the initiation of the incubation, the viable cells were counted with the passage of time in accordance with the method described in “Soshiki Baiyo no Gijutsu” (second ed.), Asakura Shuppan, ed. by Nippon Soshiki Baiyo Gakkai, 26-28 (1990), namely, by the Trypan Blue staining method on a counting chamber.

[2] = system: Human acute lymphatic leukemia cells MOLT-3; assay: Viable count (Trypan Blue) of MOLT-3 cells; format: cell-based; conditions: Example 24
Protocol: Then the suspension was pipetted into a 24-well plate (mfd. by FALCON) at a ratio of 1.8 ml/well. […] As a control, PBS alone was added in the same amount and incubation was effected in the same manner. 2, 4, 6 and 8 days after the initiation of the incubation, the cells were counted by the Trypan Blue staining method.
In this figure, the abscissa refers to the incubation time (day) while the ordinate refers to the viable count (×10^4 cells /2 ml) in the culture medium. In FIG. 28, the open circle stands for the control (no addition), the solid circle stands for the sulfated-fucose-containing polysaccharide-F obtained in Example 12, the open square stands for the sulfated-fucose-containing polysaccharide obtained in Example 1, the open triangle stands for that obtained in Example 17 and the solid square stands for that obtained in Example 15.

[3] = system: Human premyelocytic leukemia cells HL-60; assay: Viable count (Trypan Blue) and microscopic morphology of HL-60 cells; format: cell-based; conditions: Example 25; 10 μg/ml solution of actinomycin D; 20 hours
[4] = system: Human premyelocytic leukemia cells HL-60; assay: DNA ladder detection by agarose gel electrophoresis in HL-60 cells
[5] = system: Human acute lymphatic leukemia cells MOLT-3; assay: DNA ladder detection by agarose gel electrophoresis in MOLT-3 cells; conditions: Example 23; 10 μg/ml solution of actinomycin D; 20 hours

| Molecule | cell morphology (characteristics of apoptosis) [1] | change in cell count [1] | viable count versus incubation time curve (FIG. 29) [1] | effects of inducing apoptosis, filter-treated samples [1] | effects of inducing apoptosis, autoclaved samples ([2]; 0.5 mg/ml in PBS, autoclave 121° C. 20 minutes) | apoptosis induction and growth inhibition (viable count, FIG. 28) ([2]; 0.2 ml of 0.5 mg/ml solution per 1.8 ml well (text: concentration of 0.5 mg/ml), 2, 4, 6 and 8 days) | viable count versus incubation time curve (FIG. 28) ([2]; 2 to 8 days) | cell morphology (shrinkage and fragmentation) [3] | DNA ladders ([4]; Example 20, 10 μg/ml solution of actinomycin D, 20 hours) | DNA ladders ([4]; Example 35, Actinomycin D as substitute for F-Fd-4) | DNA ladders [5] |
| --- | --- | --- | --- | --- | --- | --- | --- | --- | --- | --- | --- |
| heparin | showed characteristics of apoptosis such as the shrinkage and fragmentation of the cells | little increase or a decrease in cell count | substantially the same curve as the one of the sulfated-fucose-containing polysaccharide preparation of Example 1 | the same results were obtained | – | – | – | – | – | – | – |
| dextran sulfate | showed characteristics of apoptosis such as the shrinkage and fragmentation of the cells | little increase or a decrease in cell count | substantially the same curve as the one of the sulfated-fucose-containing polysaccharide preparation of Example 1 | the same results were obtained | the same results were obtained | induce the apoptosis of the MOLT-3 cells and considerably inhibit the growth of these cells | substantially the same curve as the one obtained by using the sulfated-fucose-containing polysaccharide of Example 15 | – | – | – | – |
| Cc1c2oc3c(C)ccc(C(=O)N[C@@H]4C(=O)N[C@H](C(C)C)C(=O)N5CCC[C@H]5C(=O)N(C)CC(=O)N(C)[C@@H](C(C)C)C(=O)O[C@@H]4C)c3nc-2c(C(=O)N[C@@H]2C(=O)N[C@H](C(C)C)C(=O)N3CCC[C@H]3C(=O)N(C)CC(=O)N(C)[C@@H](C(C)C)C(=O)O[C@@H]2C)c(N)c1=O [actinomycin D] (I: T[dV]P[Sar][NMeV] / II: T[dV]P[Sar][NMeV]; ester I:1-I:C, II:1-II:C; linker I:N-II:N via Actinocin(9to1)) | – | – | – | – | – | – | – | the shrinkage and fragmentation of the cells were observed | DNA ladders were observed | DNA ladders were observed | DNA ladders were observed |
